Laboratory results from patent publication US20240252594A1, “COMBINATION THERAPY FOR NEURODEGENERATIVE DISEASES” (ALETA NEUROSCIENCE, LLC, priority 2021, published 2024).

What was measured:
[1] = tested on: PD patients; conditions: at 6 months; cited from earlier work
[2] = tested on: human dopaminergic neurons (iCell DopaNeurons); assay: MPP+-induced neurotoxicity: cytolysis of iCell DopaNeurons; type: cell-based; conditions: for Cytolysis, Mean ± S.D.: with MPP+ 100 μM
Experimental: Three different measurements were made in the experiments. Neurite length in mm was measured, which is a measure of increase in dendril length of neurons. […] Secondly, neurite branching was measured. […] Thirdly, cytolysis of the cells was measured. […] Experimental conditions were measured relative to the results of healthy cells in the studies.
(§1) Procedure. iCell DOPA neurons were thawed and cultured following the provider's instructions in Brainphys medium+provided supplements+1% N2 supplement (Stemcell Technologies)+penicillin/streptomycin+Laminin. They were plated at 20000 cells per well of a 384 well plate (pre-coated with poly-D-lysine and Laminin) in 70 μL of growth medium. Cells were incubated at 37° ° C./5% CO2 in a humidified cell culture incubator. Half of the culture medium was changed twice a week.
(§2) MPP+-induced neurotoxicity: 24 hours after neuronal plating, half of the medium was removed and the test compounds were applied with MPP+ treatment, both concentrated at 4×, were added to the wells. For each well, five aliquots were added, corresponding columns A-E in Table 3. In each row, either the compound indicated dissolved in its vehicle noted in Table 2 was added, or only a vehicle was added as indicated. Column E is an indicator of whether MPP+ was added. If not, only the medium was added.
(§3) For the evaluation of conditions 8, 10,12, 22, 24, Neurite outgrowth was followed for subsequent 48 hours using an Incucyte Zoom platform with one phase contrast image every 4 hours, using a 20× objective. After 48 hours, the medium containing test compounds and MPP+ was removed and replaced by fresh medium containing a fluorescent cytolysis marker (red fluorescence) and a live cell marker (green fluorescence). For the evaluation of conditions 10, 12, 24, 38, 40, 51-53, Neurite outgrowth was followed similarly for subsequent 72 hours after MPP+ was added.
Data was normalized to control conditions as there is basal cytolysis in the cell culture after thawing.

[3] = tested on: R6/2 HD mice; conditions: 10-day oral treatment, 9-week mice; cited from earlier work
[4] = tested on: human dopaminergic neurons (iCell DopaNeurons); assay: MPP+-induced neurotoxicity: neurite outgrowth (neurite length, branch points) on iCell DopaNeurons; type: cell-based
From the text: MPP+(1-methyl-4-phenylpyridinium) is a known neurotoxin which acts by interfering with oxidative phosphorylation in mitochondria by inhibiting complex I, a protein in the membrane of mitochondria in dopaminergic neurons in the substantia nigra.(94) The inhibition of mitochondrial function leads to the depletion of ATP and eventual cell death. MPP+ ultimately causes Parkinsonism in primates by killing certain dopamine-producing neurons in the substantia nigra.
iCell DOPA neurons are neural floor plate-derived midbrain dopaminergic neurons generated from human induced pluripotent stem cells (iPSCs). Dopaminergic neurons, specifically those located in the floor plate-derived midbrain are implicated in neurological disorders such as Parkinson's disease, MSA and DLBD among others. […] The iCellDopa neurons were supplied from FUJIFILM Cellular Dynamics.
as §1, §2, §3
Assay endpoints and data analysis. Phase contrast images were analyzed at each time point to determine the neurite length and number of branch points per mm^2. Kinetic data was plotted and kinetics were normalized by subtracting the value of the first data point (at time of treatment), allowing to measure changes in neurite outgrowth only from the onset of the treatment, starting at zero. Area Under Curve (AUC) of kinetic data was obtained and used for plotting compound's effects and perform statistical analyzes.

[5] = tested on: TNF-α mediated neuroinflammation in microglial cells; assay: LPS/ATP-induced neuroinflammation in microglia: TNF-α secretion (Luminex); type: cell-based, human
From the text: (§4) In addition to the studies discussed above assessing activity of combinations of drugs on MPP+-induced neurodegeneration toxicity on human dopaminergic neurons as well as on a human iPSC cell line harboring a triplication mutation in alpha-synuclein gene, and measuring neuronal growth, neurite branching and neurofilament heavy chain, we also assessed combinations of drugs in reducing lipopolysaccharide (LPS, from E. coli)-induced neuroinflammation in human microglia cells.
(§5) Lipopolysaccharides are important outer membrane components of gram-negative bacteria such as E. coli and Salmonella. They are large amphipathic glycoconjugates that typically consist of a lipid domain (hydrophobic) attached to a core oligosaccharide and a distal polysaccharide. LPS binds to Toll-like receptor 4 (TLR4) and activates microglia(98) which in turn increases secretion of pro-inflammatory cytokines such as interleukin-6 (IL-6), tumor necrosis factor-α (TNF-α), and CXCL1/GROα.
(§6) Microglia cells were obtained from an iCell® Microglia kit, 01279 (Catalogue N^o R1131) from FUJIFILM Cellular Dynamics. We followed the manufacturer's protocol for activation of the microglial cells with LPS/ATP to subsequently measure the effect of the study drugs on pro-inflammatory cytokines IL-6, TNF-α and CXCL1/GROα.
(§7) All cell culture procedures were performed in aseptic conditions, under a laminar flow hood. Microglia were thawed and cultured following the provider's instructions. The microglia were plated at 50,000 cells per well of a Corning Primaria 96 well plate (Ref N^o 353872) in 100 μL of growth medium. Cells were incubated at 37° C./5% CO2 in a humidified cell culture incubator.
(§8) Three days after cell plating, the test or reference substances (25 μL of solutions at 5×) were applied 1 hour before LPS and ATP stimulation.
(§9) One hour later, 12.5 μL of test or reference substances were added again at 2× concentrated followed by 12.5 μL of LPS at 12× concentration. Fifty microliters of ATP were introduced at 4× concentration, 5 h 30 min after incubation with LPS.
(§10) Six hours after LPS incubation, the supernatant of each well was collected and centrifugated at 1000 g for 10 minutes to remove the cells and debris.
(§11) Fifty microliters of supernatant from NT and LPS+ATP-treated wells were used to determine cytokine secretion (IL-6, TNF-α, CXCL1/GROα) by Luminex platform according to the provider's instructions. Samples were diluted prior to the assay to fit within the standard range if needed. Three wells were tested per each condition (Table 11). Cytokines levels in the supernatant were expressed in pg/mL. The data was analyzed using a One-Way ANOVA followed by Bonferroni test.

[6] = tested on: riluzole-treated patients; conditions: cited from earlier work
[7] = tested on: MPTP mouse model; conditions: pre-treatment 50 mg/kg for 3 days; cited from earlier work
[8] = tested on: iPSC-derived dopaminergic (DA) neurons harboring triplication of the α-synuclein locus; assay: α-Synuclein triplication cell line: neurofilament heavy chain signal intensity; type: cell-based, human; conditions: normalized to Hoechst signal; three months treatment; PBA 500 μM, TUDCA 50 μM, EXD 100 nM
Experimental: We used 12 replicas for each experimental condition and 16 replicas for control (untreated cells). […] Cells were washed three times with warm phosphate buffered saline (PBS) and imaged immediately at 20× magnification on an imageXpress Micro confocal at 37° C. and 5% CO2.
Following imaging, cells were immediately fixed with 4% paraformaldehyde for 30 minutes at room temperature, washed three times with PBS, permeabilized with 0.2% Triton X-100 for 30 minutes, blocked with Odyssey Blocking Buffer for 60 minutes, and incubated overnight at 4° C. with primary antibodies, neurofilament (1:1000, Synaptic Systems 171 002) and LB509 (1:100, Abcam ab27766). Cells were washed 3× with 0.1% Tween-20 in PBS and incubated with Alexa Fluor Goat Anti-Rabbit 790 (1:1000) and Goat Anti-Mouse 647 (1:1000) for 1 hour at RT, before washing 3× with 0.1% Tween-20 in PBS and imaging with Sapphire Biomolecular Imager. Neurofilament heavy chain signal intensity was normalized to fixed Hoechst signal measured with Spectra Gemini plate reader (ex=350 nm, em=461 nm), using Hoechst 33342 nucleic acid stain from Invitrogen according to the manufacturer's instructions. Neurofilaments (NF) are located mostly in axons and indicate roughly the content of neurites. If neurodegeneration is halted or reversed, NF signal increases because it correlates with the number and/or length of neurites in the well.

[9] = tested on: cortical neurons; conditions: 100 μM for 12 h; cited from earlier work
[10] = tested on: CXCL1/GROα mediated neuroinflammation in microglial cells; assay: LPS/ATP-induced neuroinflammation in microglia: CXCL1/GROα secretion (Luminex); type: cell-based, human
From the text: as §4, §5, §6, §7, §8, §9, §10, §11

[11] = tested on: IL-6 mediated inflammation in microglial cells; assay: LPS/ATP-induced neuroinflammation in microglia: IL-6 secretion (Luminex); type: cell-based, human
From the text: as §4, §5, §6, §7, §8, §9, §10, §11

[12] = tested on: R6/2 transgenic mice; conditions: 500 mg/kg; cited from earlier work
[13] = tested on: APP/PS1 mice; conditions: 6-month treatment with 0.4% of TUDCA in diet; cited from earlier work
[14] = tested on: SOD(G93A) mice; conditions: treatment from 75 days; cited from earlier work
[15] = tested on: patients with rapidly progressive SOD1 ALS; conditions: not statistically significant; cited from earlier work
[16] = LPS (100 ng/mL) + ATP (5 mM), six hours after LPS
[17] = compared with […] distilled water in presence of LPS and ATP

Cc1c(O)c(=O)ccn1C [DFP, Deferiprone]
UPDRS for motor skills, early start group [1]: 21.6±8
Cytolysis, Mean ± S.D. ([2]; Table 9.2, plate 2): 71.91 ± 1.28%
Motor endurance [3]: improved motor endurance
Protective effect on neurite length and branching (in words) ([4]; MPP+ 100 μM): substantially inferior to condition 40
Neurite length - Baseline-corrected AUC (0-72 h), Mean ([4]; Table 6.1, plate 2, with MPP+ 100 μM): 874.5 mm/mm^2
Number of branch points per mm^2 - Baseline-corrected AUC (0-72 h), Mean ([4]; Table 6.2, plate 2, with MPP+ 100 μM): 24282.5 per mm^2
Neurite length, Mean ± S.D. ([4]; Table 8.1, plate 2, with MPP+ 100 μM, 72 hours): 1303.0 ± 378.7 mm/mm^2
Neurite Branching, Mean ± S.D. ([4]; Table 8.2, plate 2, with MPP+ 100 μM, 72 hours): 51711.3 ± 15178.4 per mm^2

C[C@H](CCC(=O)NCCS(=O)(=O)O)[C@H]1CC[C@H]2[C@@H]3[C@@H](O)C[C@@H]4C[C@H](O)CC[C@]4(C)[C@H]3CC[C@]12C [TUDCA, Tauroursodeoxycholic acid]
TNF-α in supernatant, Mean ± S.D. [5, 16]: 28.57 ± 0.58 pg/mL
TNF-α in supernatant, Replicate 1 [5, 16]: 29.01 pg/mL
TNF-α in supernatant, Replicate 2 [5, 16]: 27.92 pg/mL
TNF-α in supernatant, Replicate 3 [5, 16]: 28.79 pg/mL
Decrease of TNF-α concentration [5, 17]: 52%
Cytolysis, Mean ± S.D. ([2]; Table 9.1, plate 1): 70.69 ± 2.02%
Reduction of cytolysis (cell death) (in words) ([2]; vs Control/MPP+): did not reduce cytolysis with statistical significance
Baseline-adjusted ALSFRS-R at study end vs placebo ([6]; P=0.007): significantly higher
Tolerability ([6]; human, in vivo): well tolerated
Proportion of responders ([6]; placebo 43%, P=0.021): 87%
Neurodegeneration of nigral dopaminergic neurons caused by MPTP [7]: significantly reduced neurodegeneration of the nigral dopaminergic neurons
Neurofilament Heavy Chain signal intensity, mean [8]: 1.313
Aβ peptide-associated apoptosis [9]: significantly decrease Aβ peptide-associated apoptosis
CXCL1/GROα in supernatant, Mean ± S.D. [10, 16]: 424.96 ± 48.95 pg/mL
CXCL1/GROα in supernatant, Replicate 1 [10, 16]: 447.19 pg/mL
CXCL1/GROα in supernatant, Replicate 2 [10, 16]: 368.84 pg/mL
CXCL1/GROα in supernatant, Replicate 3 [10, 16]: 458.86 pg/mL
Decrease of GROα concentration [10, 17]: 32%
IL-6 in supernatant, Mean ± S.D. [11, 16]: 437.81 ± 24.71 pg/mL
IL-6 in supernatant, Replicate 1 [11, 16]: 410.97 pg/mL
IL-6 in supernatant, Replicate 2 [11, 16]: 442.87 pg/mL
IL-6 in supernatant, Replicate 3 [11, 16]: 459.60 pg/mL
Decrease of IL-6 concentration [11, 17]: 37%
Neuroprotection [12]: neuroprotective effects
Aβ plaque accumulation in the brain [13]: prevented Aβ plaque accumulation in the brain
Increase of neurite length compared with MPP+ alone (control/MPP+) ([4]; AUC, MPP+ 100 μM): 43%
Increase of number of branch points compared with MPP+ alone (control/MPP+) ([4]; AUC, MPP+ 100 μM): 60%
Neurite length, Mean ([4]; Table 7.1, plate 1, with MPP+ 100 μM, 72 hours): 1825.9 mm/mm^2
Neurite Branching, Mean ± S.D. ([4]; Table 7.2, plate 1, with MPP+ 100 μM, 72 hours): 58836.3 ± 9596.4 per mm^2

[O-][n+]1cccc(/C(Cl)=N/OC[C@H](O)CN2CCCCC2)c1 [arimoclomol, Arimoclomol]
Lifespan [14]: significantly increased the lifespan
Survival, hazard ratio [15]: 0.77
